Test results from patent publication US8937063B2 (Trustees of Tufts College, priority 2010, dated 2015).

Assay: ARI-001 plasma, liver and adipose concentrations correlated with lipid parameters
Type: in vivo, hamster
Details: 18-day study; p<0.01 for each pair
Description: Plasma from the 19 hamsters dosed with ARI-001 in the above described 18-day study was analyzed for concentrations of ARI-001. Concentrations were determined for these samples, which were collected 24 hours after the final dose was administered. Briefly, plasma drug concentrations for the non-GLP pharmacokinetic experiments were determined by LC-MS using an Applied Biosystems 4000Qtrap spectrometer with electrospray ionization. Samples were prepared for analysis by precipitation of plasma proteins with cold methanol. HPLC of the samples was done with an Agilent Eclipse C18 column and a methanol/water gradient containing 0.1% formic acid and 5 mM ammonium acetate. ARI-001 was detected using multiple reaction monitoring (MRM) in the positive ion mode. For quantitation, a standard curve was measured by addition of known amounts of ARI-001 to plasma from untreated animals and preparing in a manner identical to the samples from treated animals. All plasma samples were spiked with 10 ng/mL of isotope-enriched ARI-001 which served as an internal standard for the LC-MS measurements. […] Pearson r values were determined using all data points, as was the two-tailed P-value for the data set. […]
FIG. 8 graphs the correlation between concentrations of ARI-001 in plasma versus liver (left), and in plasma versus adipose (right). […] Pearson r was determined using all data points illustrated. […]

O=C(O)c1ccc(CCN2CCOCC2)nc1 [ARI-001]
correlations of plasma versus liver and plasma versus adipose concentrations: highly statistically significant
